molecular target: hFXR (Homo sapiens (Human), UniProt Q96RI1); assay: In Vitro FXR Assay (TK); format: cell-based; conditions: CV-1 cells transfected with hFXR, hRXR, TK-ECRE-luc and pCMX-YFP; incubated 18 hrs; luminescence; maximum efficacy <25% of the Fexarmine control classified as '+'
Procedure: Example B-1: In Vitro FXR Assay (TK)
CV-1 cells were seeded at a density of 2,000,000 cells in a T175 flask with DMEM+10% charcoal double-stripped FBS and incubated at 37° C. in 5% CO2 for 18 h (O/N).
After 18 h of incubation, the medium in the T175 flask was changed with fresh DMEM+10% charcoal super-stripped serum. In a polypropylene tube, 2500 μL OptiMEM (Life Technologies, Cat #31985-062) was combined with expression plasmids for hFXR, hRXR, TK-ECRE-luc and pCMX-YFP. The tube was then briefly vortexed and incubated at room temperature for 5 minutes. Transfection reagent (X-tremeGENE HP from Roche, Cat #06 366 236 001) was added to the OptiMEM/plasmid mixture vortexed and incubated at room temperature for 20 minutes. Following incubation, the transfection reagent/DNA mixture complex was added to cells in the T175 flask and the cells were incubated at 37° C. in 5% CO2 for 18 h (O/N).
Compounds were serially diluted in DMSO and added to transfected CV-1 cells. The cells were then incubated for 18 hrs. The next day cells were lysed and examined for luminescence.

hFXR, sequence (Q96RI1 whole entry): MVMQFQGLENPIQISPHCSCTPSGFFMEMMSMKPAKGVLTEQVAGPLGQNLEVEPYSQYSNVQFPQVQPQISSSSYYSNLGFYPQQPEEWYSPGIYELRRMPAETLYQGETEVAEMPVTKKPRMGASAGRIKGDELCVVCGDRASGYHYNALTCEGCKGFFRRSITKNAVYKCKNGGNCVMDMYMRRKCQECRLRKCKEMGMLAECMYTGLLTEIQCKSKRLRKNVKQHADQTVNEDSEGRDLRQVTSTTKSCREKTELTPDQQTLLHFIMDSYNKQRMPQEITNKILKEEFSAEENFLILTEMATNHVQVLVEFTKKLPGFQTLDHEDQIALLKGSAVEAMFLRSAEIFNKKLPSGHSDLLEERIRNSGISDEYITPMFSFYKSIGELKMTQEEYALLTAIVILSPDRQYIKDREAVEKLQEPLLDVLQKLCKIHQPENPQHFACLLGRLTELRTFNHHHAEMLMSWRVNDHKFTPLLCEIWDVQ
hFXR, sequence (P19793 whole entry partner): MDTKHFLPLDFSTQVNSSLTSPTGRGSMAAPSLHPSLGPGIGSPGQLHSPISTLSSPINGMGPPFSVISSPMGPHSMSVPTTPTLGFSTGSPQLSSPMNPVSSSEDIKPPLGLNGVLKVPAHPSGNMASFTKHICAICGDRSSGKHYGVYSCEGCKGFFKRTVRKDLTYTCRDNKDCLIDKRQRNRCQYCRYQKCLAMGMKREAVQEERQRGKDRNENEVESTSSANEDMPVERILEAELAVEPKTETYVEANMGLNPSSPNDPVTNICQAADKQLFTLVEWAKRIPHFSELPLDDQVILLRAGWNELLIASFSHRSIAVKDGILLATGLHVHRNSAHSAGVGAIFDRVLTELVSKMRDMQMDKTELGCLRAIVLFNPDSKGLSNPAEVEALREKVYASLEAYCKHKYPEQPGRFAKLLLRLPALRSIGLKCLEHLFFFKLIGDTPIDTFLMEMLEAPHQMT

`COc1ccc([C@H]2CC[C@H](CN(c3cccc(-n4cc(C)cn4)c3)C(=O)[C@H]3CC[C@H](O)CC3)CC2)cc1C` [Compound 1, trans-4-Hydroxy-N-((trans-4-(4-methoxy-3-methylphenyl)cyclohexyl)methyl)-N-(3-(4-methyl-1H-pyrazol-1-yl)phenyl)cyclohexanecarboxamide] and `COc1ccc([C@H]2CC[C@H](CN(c3cccc(-c4cnn(C)c4)c3)C(=O)[C@H]3CC[C@H](O)CC3)CC2)cc1C` [Compound 2.01, trans-4-Hydroxy-N-((trans-4-(4-methoxy-3-methylphenyl)cyclohexyl)methyl)-N-(3-(1-methyl-1H-pyrazol-4-yl)phenyl)cyclohexanecarboxamide] cannot be ordered by EC50: 250 to 1000 nM for the first, ≤ 250 nM for the second.

`CCn1cc(-c2cccc(N(C[C@H]3CC[C@H](c4ccc(OC)c(C#N)c4)CC3)C(=O)[C@H]3CC[C@H](O)CC3)c2)cn1` [Compound 2, trans-N-((trans-4-(3-Cyano-4-methoxyphenyl)cyclohexyl)methyl)-N-(3-(1-ethyl-1H-pyrazol-4-yl)phenyl)-4-hydroxycyclohexanecarboxamide] and `CCn1cc(-c2cccc(N(C[C@H]3CC[C@H](c4ccc(OC)c(C)c4)CC3)C(=O)[C@H]3CC[C@H](O)CC3)c2)cn1` [Compound 2.02, trans-N-(3-(1-Ethyl-1H-pyrazol-4-yl)phenyl)-4-hydroxy-N-((trans-4-(4-methoxy-3-methylphenyl)cyclohexyl)methyl)cyclohexanecarboxamide] cannot be ordered by EC50: ≤ 250 nM for the first, ≤ 250 nM for the second.

`COc1ccc([C@H]2CC[C@H](CN(c3cccc(-c4cnn(C(C)C)c4)c3)C(=O)[C@H]3CC[C@H](O)CC3)CC2)cc1C#N` [Compound 2.03, trans-N-((trans-4-(3-Cyano-4-methoxyphenyl)cyclohexyl)methyl)-4-hydroxy-N-(3-(1-isopropyl-1H-pyrazol-4-yl)phenyl)cyclohexanecarboxamide] and `COc1ccc([C@H]2CC[C@H](CN(c3cccc(-c4cnn(C(C)C)c4)c3)C(=O)[C@H]3CC[C@H](O)CC3)CC2)cc1C` [Compound 3.02, trans-4-Hydroxy-N-(3-(1-isopropyl-1H-pyrazol-4-yl)phenyl)-N-((trans-4-(4-methoxy-3-methylphenyl)cyclohexyl)methyl)cyclohexanecarboxamide] cannot be ordered by EC50: ≤ 250 nM for the first, ≤ 250 nM for the second.

`COc1ccc([C@H]2CC[C@H](CN(c3cccc(-c4cnn(C5CC5)c4)c3)C(=O)[C@H]3CC[C@H](O)CC3)CC2)cc1C#N` [Compound 2.04, trans-N-((trans-4-(3-Cyano-4-methoxyphenyl)cyclohexyl)methyl)-N-(3-(1-cyclopropyl-1H-pyrazol-4-yl)phenyl)-4-hydroxycyclohexanecarboxamide] and `COc1ccc([C@H]2CC[C@H](CN(c3cccc(-c4cnn(C5CC5)c4)c3)C(=O)[C@H]3CC[C@H](O)CC3)CC2)cc1C` [Compound 3, trans-N-(3-(1-Cyclopropyl-1H-pyrazol-4-yl)phenyl)-4-hydroxy-N-((trans-4-(4-methoxy-3-methylphenyl)cyclohexyl)methyl)cyclohexanecarboxamide] cannot be ordered by EC50: ≤ 250 nM for the first, ≤ 250 nM for the second.

`COc1ccc([C@H]2CC[C@H](CN(c3cccc(-c4cnn(CC(F)F)c4)c3)C(=O)[C@H]3CC[C@H](O)CC3)CC2)cc1C` [Compound 2.05, trans-N-(3-(1-(2,2-Difluoroethyl)-1H-pyrazol-4-yl)phenyl)-4-hydroxy-N-((trans-4-(4-methoxy-3-methylphenyl)cyclohexyl)methyl)cyclohexanecarboxamide] and `COc1ccc([C@H]2CC[C@H](CN(c3cccc(-c4cnn(CC(C)C)c4)c3)C(=O)[C@H]3CC[C@H](O)CC3)CC2)cc1C` [Compound 3.03, trans-4-Hydroxy-N-(3-(1-isobutyl-1H-pyrazol-4-yl)phenyl)-N-((trans-4-(4-methoxy-3-methylphenyl)cyclohexyl)methyl)cyclohexanecarboxamide] cannot be ordered by EC50: ≤ 250 nM for the first, ≤ 250 nM for the second.

`COc1ccc([C@H]2CC[C@H](CN(c3cccc(-c4cnn(C(F)(F)F)c4)c3)C(=O)[C@H]3CC[C@H](O)CC3)CC2)cc1C` [Compound 2.06, trans-4-Hydroxy-N-((trans-4-(4-methoxy-3-methylphenyl)cyclohexyl)methyl)-N-(3-(1-(trifluoromethyl)-1H-pyrazol-4-yl)phenyl)cyclohexanecarboxamide] and `COc1ccc([C@H]2CC[C@H](CN(c3cccc(-c4cnn(CC(F)(F)F)c4)c3)C(=O)[C@H]3CC[C@H](O)CC3)CC2)cc1C` [Compound 3.07, trans-4-Hydroxy-N-((trans-4-(4-methoxy-3-methylphenyl)cyclohexyl)methyl)-N-(3-(1-(2,2,2-trifluoroethyl)-1H-pyrazol-4-yl)phenyl)cyclohexanecarboxamide] cannot be ordered by EC50: ≤ 250 nM for the first, ≤ 250 nM for the second.

`COc1ccc([C@H]2CC[C@H](CN(c3cc(-c4cnn(C5CC5)c4)ccn3)C(=O)[C@H]3CC[C@H](O)CC3)CC2)cc1C` [Compound 2.07, trans-N-(4-(1-Cyclopropyl-1H-pyrazol-4-yl)pyridin-2-yl)-4-hydroxy-N-((trans-4-(4-methoxy-3-methylphenyl)cyclohexyl)methyl)cyclohexanecarboxamide] and `COc1ccc([C@H]2CC[C@H](CN(c3cccc(-c4cnn(C5CCC5)c4)c3)C(=O)[C@H]3CC[C@H](O)CC3)CC2)cc1C` [Compound 3.08, trans-N-(3-(1-Cyclobutyl-1H-pyrazol-4-yl)phenyl)-4-hydroxy-N-((trans-4-(4-methoxy-3-methylphenyl)cyclohexyl)methyl)cyclohexanecarboxamide] cannot be ordered by EC50: ≤ 250 nM for the first, ≤ 250 nM for the second.

`COc1ccc(C23CCC(CN(c4cc(-c5cnn(C6CC6)c5)ccn4)C(=O)[C@H]4CC[C@H](O)CC4)(CC2)CC3)cc1C` [Compound 2.08, trans-N-(4-(1-Cyclopropyl-1H-pyrazol-4-yl)pyridin-2-yl)-4-hydroxy-N-((4-(4-methoxy-3-methylphenyl)bicyclo[2.2.2]octan-1-yl)methyl)cyclohexanecarboxamide] and `COc1ccc(C23CCC(CN(c4cc(-c5cnn(C(C)C)c5)ccn4)C(=O)[C@H]4CC[C@H](O)CC4)(CC2)CC3)cc1C` [Compound 2.09] cannot be ordered by EC50: ≤ 250 nM for the first, ≤ 250 nM for the second.

First: COc1ccc([C@H]2CC[C@H](CN(c3cccc(-c4ccn(C)n4)c3)C(=O)[C@H]3CC[C@H](O)CC3)CC2)cc1C [Compound 3.01, trans-4-Hydroxy-N-((trans-4-(4-methoxy-3-methylphenyl)cyclohexyl)methyl)-N-(3-(1-methyl-1H-pyrazol-3-yl)phenyl)cyclohexanecarboxamide]
Second: CCCn1cc(-c2cccc(N(C[C@H]3CC[C@H](c4ccc(OC)c(C)c4)CC3)C(=O)[C@H]3CC[C@H](O)CC3)c2)cn1 [Compound 3.04, trans-4-Hydroxy-N-((trans-4-(4-methoxy-3-methylphenyl)cyclohexyl)methyl)-N-(3-(1-propyl-1H-pyrazol-4-yl)phenyl)cyclohexanecarboxamide]
The EC50 of the first is higher: ≥ 1000 nM for the first, ≤ 250 nM for the second. The second is the more potent here.

First: COc1ccc([C@H]2CC[C@H](CN(c3cccc(-c4cnn(CCO)c4)c3)C(=O)[C@H]3CC[C@H](O)CC3)CC2)cc1C [Compound 3.05, trans-4-Hydroxy-N-(3-(1-(2-hydroxyethyl)-1H-pyrazol-4-yl)phenyl)-N-((trans-4-(4-methoxy-3-methylphenyl)cyclohexyl)methyl)cyclohexanecarboxamide]
Second: COc1ccc([C@H]2CC[C@H](CN(c3cccc(-c4cnn(CCF)c4)c3)C(=O)[C@H]3CC[C@H](O)CC3)CC2)cc1C [Compound 3.12, trans-N-(3-(1-(2-Fluoroethyl)-1H-pyrazol-4-yl)phenyl)-4-hydroxy-N-((trans-4-(4-methoxy-3-methylphenyl)cyclohexyl)methyl)cyclohexanecarboxamide]
The EC50 of the first is higher: ≥ 1000 nM for the first, ≤ 250 nM for the second.

Going from `COc1ccc([C@H]2CC[C@H](CN(c3cccc(-c4cnn(CCN(C)C)c4)c3)C(=O)[C@H]3CC[C@H](O)CC3)CC2)cc1C` [Compound 3.06, trans-N-(3-(1-(2-(Dimethylamino)ethyl)-1H-pyrazol-4-yl)phenyl)-4-hydroxy-N-((trans-4-(4-methoxy-3-methylphenyl)cyclohexyl)methyl)cyclohexanecarboxamide] to `COc1ccc([C@H]2CC[C@H](CN(c3cccc(-c4cnn(C(F)F)c4)c3)C(=O)[C@H]3CC[C@H](O)CC3)CC2)cc1C` [Compound 3.11, trans-N-(3-(1-(Difluoromethyl)-1H-pyrazol-4-yl)phenyl)-4-hydroxy-N-((trans-4-(4-methoxy-3-methylphenyl)cyclohexyl)methyl)cyclohexanecarboxamide], the EC50 falls from ≥ 1000 nM to ≤ 250 nM. The second is the more potent here.

`COc1ccc([C@H]2CC[C@H](CN(c3cccc(-c4cnn(C5COC5)c4)c3)C(=O)[C@H]3CC[C@H](O)CC3)CC2)cc1C` [Compound 3.09, trans-4-Hydroxy-N-((trans-4-(4-methoxy-3-methylphenyl)cyclohexyl)methyl)-N-(3-(1-(oxetan-3-yl)-1H-pyrazol-4-yl)phenyl)cyclohexanecarboxamide] and `COc1ccc([C@H]2CC[C@H](CN(c3cccc(-c4cnn(C5CCOCC5)c4)c3)C(=O)[C@H]3CC[C@H](O)CC3)CC2)cc1C` [Compound 3.10, trans-4-Hydroxy-N-((trans-4-(4-methoxy-3-methylphenyl)cyclohexyl)methyl)-N-(3-(1-(tetrahydro-2H-pyran-4-yl)-1H-pyrazol-4-yl)phenyl)cyclohexanecarboxamide] cannot be ordered by EC50: ≤ 250 nM for the first, ≤ 250 nM for the second.
